We go through 2 compounds from US11185077B2, “Attractants for rodents” (priority 2016, dated 2021).

For test [1], the system named is brown rats, Rattus norvegicus. Put plainly: Laboratory arena with two trap boxes: behavioral responses of rats (first entry, time spent). It counts as in vivo. The source says: A laboratory experimental apparatus was constructed to test the behavioral responses of rats to the compositions described herein. The experimental design is depicted in FIG. 1 and includes a circular galvanized steel arena (200 cm×60 cm) illuminated from above by a 7.5-W red bulb (Halco Lighting Technologies, Norcross, Ga. 30071, USA) to facilitate observations of the position of the rat within the steel arena. Two metal trap boxes (3a, 3b) (each 25 cm×20 cm×12 cm; T. Eaton & Co. Inc., Twinsburg, Ohio 44087, USA) were placed in opposite quadrants of the arena (1) 10 cm from the wall to serve as harborage. Each box (3a, 3b) was fitted with a Petri dish (3 cm) containing a Whatman #1 filter paper disk (25 mm diam; Sigma-Aldrich Canada Co. Oakville, On L6H 6J8) treated with a randomly assigned treatment or control stimulus. Individual rats were released from a gated mesh and sheet metal box (2) (25 cm×15 cm×15 cm) positioned equidistant to each of the two metal trap boxes (3a, 3b).
For each experimental replicate, a single rat was removed from its “home” cage, and placed into the gated mesh- and sheet-metal container (2). After a 10-min acclimation period, the gate was raised, allowing the rat to leave the box (2) on its own accord and to explore the arena (1) and the trap boxes (3a, 3b).
A rat was classed a responder if it entered a trap box (3a, 3b). For each responding rat, two criteria were recorded and analyzed: 1) the trap box (3a, 3b) it entered first (“first entry”), and 2) the time it spent in the arena quadrants associated with a trap box (“time spent”). The latter data were obtained by recording the rat's position in any one of the four arena quadrants at each of 30 1-min intervals. Following each replicate, the arena and trap boxes were cleaned with a Percept™ disinfectant detergent (Virox Technologies Inc. Mississaugua ON L5N 5M4, Canada) and were wiped with a pet urine odor remover (Nature's Miracle®, Spectrum Brands Inc., Blacksburg, Va. 24060-6671, USA).
(§1) First-choice data and the time spent in a trap box quadrant were analyzed using a χ^2 test with Yates' correction for continuity (α=0.05) and the Student's t-test (α=0.05), respectively.
In Experiments 1 and 2, the laboratory experimental design of FIG. 1 was used to evaluate the responses of male and female rats to synthetic androstenone. For Experiments 1 and 2, the treatment stimulus consisted of filter paper sprayed with 2 ml of an aqueous microemulsion containing 4 μg of synthetic androstenone and a control stimulus which consisted of untreated filter paper. The treatment stimulus and control stimulus were placed in the trap boxes (3a, 3b). Experiment 1 tested the response of male rats and Experiment 2 tested the response of female rats.
In Experiments 3 and 4, the laboratory experimental design of FIG. 1 was used to evaluate the responses of male and female rats to synthetic progesterone and estrogen. For Experiments 3 and 4, the treatment stimulus consisted of filter paper impregnated with a 4-μg blend of the synthetic hormones progesterone and estrogen formulated in 50 μl of ether at a ratio of either 100:1 (Experiment 3) or 1000:1 (Experiment 4). The control stimulus in each of Experiments 3 and 4 consisted of filter paper impregnated with 50 μl of ether.
Experiment 14 used the laboratory experimental apparatus of FIG. 1 to test choices of female rats between a treatment stimulus consisting of filter paper treated with 150 ng of synthetic testosterone formulated in 50 μl of ether and a control stimulus consisting of filter paper treated with 50 μl of ether.

Another test concerns house mice, Mus musculus. Put plainly: Laboratory T-tube bioassay: behavioral responses of mice (first choice, time spent). The note with it: female mice. Type of test: in vivo.
From the text: A laboratory experimental apparatus was constructed to test the behavioral responses of mice to the compositions described herein. The experimental design is depicted in FIG. 4 and includes three clear Plexiglas chambers: release chamber (1: 40 cm×20 cm×30 cm for placement of a mouse at the onset of a bioassay), and response chambers (3a and 3b: each 60 cm×30 cm×40 cm) interconnected by a Pyrex glass T-tube (2; stem: 65 cm long, side arms: 45 cm long, all 10 cm in diameter). Each response chamber housed a test stimulus in a Petri dish (4a, 4b; 3 cm diam.). For each replicate, a single mouse was deprived of food, but not water, for 4-6 h before being placed into chamber 1, which was illuminated by dim red light to facilitate observations of the mouse's position. The mouse was allowed to enter the stem of the T-tube (2) on its own accord in response to test stimuli, which were randomly assigned to response chamber 3a or 3b.
Both response chambers were fitted with a Petri dish (4a, 4b) containing a Whatman #1 filter paper disk (25 mm diam.) treated with a randomly assigned treatment stimulus or control stimulus. For each bioassay, a single mouse was tested and the following data were recorded: (1) the treatment or control chamber the mouse entered first with all four paws (“first-choice data”); and (2) the position of the mouse at each of 30 30-sec intervals after its first entry into the T-tube. Position data were then used to calculate the proportion of time a mouse spent in the treatment or control chamber (“time-spent data”).
Following each replicate, the chambers and T-tube were cleaned with a Percept® disinfectant detergent (Virox Technologies Inc. Mississaugua ON L5N 5M4, Canada) and wiped with 70% ethanol.
as §1
In Experiment 5, the laboratory experimental design of FIG. 4 was used to evaluate the responses of female mice to synthetic androstenone. For Experiment 5, the treatment stimulus consisted of filter paper treated with 4 μg of synthetic androstenone (see Experiments 1 and 2), and the control stimulus consisted of filter paper treated with the 50 μl of ether without androstenone.
In Experiment 6, the laboratory experimental design of FIG. 4 was used to evaluate the responses of male mice to blends of synthetic progesterone and estrogen. For Experiment 6, the treatment stimulus consisted of filter paper treated with a 4-μg blend of the synthetic hormones progesterone and estrogen formulated in 50 μl of ether at a ratio of 100:1 and a control stimulus which consisted of filter paper treated with 50 μl of ether.
In Experiments 9 to 11, the laboratory experimental design of FIG. 4 was used to evaluate the responses of male mice to synthetic progesterone and estrogen. For the Experiments, the treatment stimulus consisted of filter paper treated with a blend of the synthetic progesterone (50 ng) and estrogen (25 ng) (hereinafter “synthetic hormone blend”) (Experiment 9), progesterone alone (75 ng) (Experiment 10) or estrogen alone (75 ng) (Experiment 11) formulated in 50 μl ether. The control stimulus consisted of filter paper treated with 50 μl of ether for each of Experiments 9 to 11.
Experiment 12 used the laboratory experimental apparatus of FIG. 4 to test choices of female mice between filter paper treated with 75 ng of synthetic testosterone (the treatment stimulus) formulated in 50 μl of ether and control filter paper treated with 50 μl of ether. Experiment 13 was identical to Experiment 12 except that the treatment stimulus consisted of filter paper treated with 75 ng of synthetic androstenone.

[2] abbreviates: Experiment 14, female rats, 150 ng synthetic testosterone.
Setting [3] is: Experiment 12, 75 ng synthetic testosterone.
Setting [4] is: Experiment 1, male rats, 4 μg synthetic androstenone.
The mark [5] stands for this setting: Experiment 2, female rats, 4 μg synthetic androstenone.
[6] abbreviates: Experiment 5, 4 μg synthetic androstenone.
Setting [7] is: Experiment 13, 75 ng synthetic androstenone.

On to `C[C@]12CC[C@H]3[C@@H](CCC4=CC(=O)CC[C@@]43C)[C@@H]1CC[C@@H]2O` [testosterone, (8R,9S,10R,13S,14S,17S)-17-hydroxy-10,13-dimethyl-1,2,6,7,8,9,11,12,14,15,16,17-dodecahydrocyclopenta[a]phenanthren-3-one, reference compound], for which, in test [1] (setting [2]), the “first entry into baited trap box vs control trap box” value is on record as “significantly more often” and the “time spent in arena quadrant of baited trap box vs opposite control quadrant” value is on record as “significantly more time”. In test [1] (Experiment 14, female rats, 150 ng synthetic testosterone in 50 μl ether vs ether), the “attractant effect on female rats” value is given as “very positive attractant effect”. In addition, in the test with house mice, Mus musculus (setting [3]), the “first entry into baited chamber vs control chamber” value was “significantly more often”, the “preference in time spent for the treated chamber over control” value is given as “over threefold preference” and the “time spent in baited chamber vs control chamber” value is recorded as “significantly more time”. Moreover, in the test on house mice, Mus musculus (Experiment 12, 75 ng synthetic testosterone in 50 μl ether vs ether), the “effect on female mice” value is “very positive effect”.
For `C[C@]12CCC(=O)C[C@@H]1CC[C@@H]1[C@@H]2CC[C@]2(C)C=CC[C@@H]12` [androstenone, 5α-androst-16-en-3-one], in test [1] (setting [4]), the “first entry into treatment trap box vs control trap box” value is recorded as “as often as” and the “time spent in quadrants associated with stimulus vs opposite control quadrants” value was “significantly less time”. In addition, in test [1] (Experiment 1, male rats, 4 μg synthetic androstenone on filter paper vs untreated filter paper), the “attractive effect on male rats” value is recorded as “no observed attractive effect”. In test [1] (setting [5]), the “first entry into treatment trap box vs control trap box” value was “significantly more often” and the “time spent in quadrants associated with treatment stimulus vs opposite control quadrants” value was “significantly more time”. For the same compound, in test [1] (Experiment 2, female rats, 4 μg synthetic androstenone on filter paper vs untreated filter paper), the “attractive effect on female rats” value is recorded as “very attractive effect”. Besides, in the test with house mice, Mus musculus (setting [6]), the “first entry into baited response chamber vs control chamber” value is reported as “as often as” and the “time spent in response chamber with stimulus vs control chamber” value was “significantly more time”. Besides, the “effect on female mice” value in the test on house mice, Mus musculus (Experiment 5, 4 μg synthetic androstenone vs 50 μl ether) is reported as “positive effect”. Further, in the test on house mice, Mus musculus (setting [7]), the “first entry into baited chamber vs control chamber” value is on record as “as often as”, the “responses by female mice compared with testosterone” value is reported as “much weaker” and the “time spent in baited chamber vs control chamber” value is listed as “slightly more time”.
